Test results reported in patent publication US6071738A, “Conversion of organosulfur compounds to oxyorganosulfur compounds for desulfurization of fossil fuels” (Energy BioSystems Corporation, priority 1997, dated 2000).
≈ marks a conversion by molar mass, not a printed value. Where two headings read alike, the source gives them in different places.

Key:
[1] = Solubility of 2-(2-hydroxyphenyl)benzenesulfinic acid and DBTSi in liquid hydrocarbons; assay type: physicochemical
Source text: Solubility of 2-(2-hydroxyphenyl)benzenesulfinic acid and DBTSi in liquid hydrocarbons
The solubilities of 2-(2-hydroxyphenyl)benzenesulfinic acid and DBTSi in liquid hydrocarbons such as gas-oil or vacuum-gas-oil in an important parameter in process design as such refinery streams represent ultimate disposal sites for HPBS.

[2] = Titration of HPBS with hydrochloric acid or sulfuric acid (acid requirements, pKa, precipitation); assay type: physicochemical
Method: Acid requirements for the precipitation of 2-(2-hydroxyphenyl)benzenesulfinic acid were determined via titration with hydrochloric acid or sulfuric acid for solutions prepared from synthetic HPBS or HPBS derived from the biocatalytic oxidation of DBT. The titrations were conducted using standard methods.
FIG. 2 presents titration curves from 3 experiments. In experiment 1, a 110 mM solution of HPBS at pH 13 was treated with aqueous HCl. The HPBS phenolic group was titrated first, with a pKa of about 10.5. Precipitation of solid 2-(2-hydroxyphenyl)benzenesulfinic acid began at about pH 2, as the sulfinate group was protonated.
In experiment 2, a 110 mM HPBS solution equilibrated with a middle distillate (or diesel fuel) at 30° C. and pH 6.6 was titrated with HCl. The middle distillate was added to determine if the presence of middle distillate components have any effect on the protonation of HPBS.
In experiment 3, a 75 mM solution of HPBS prepared via the biocatalytic oxidation of DBT was titrated with sulfuric acid.

[3] = Precipitation of 2-(2-hydroxyphenyl)benzenesulfinic acid from acidified HPBS solution; supernatant concentration by HPLC and redissolution; assay type: physicochemical
Method: The pH of a concentrated (>50 mM) HPBS solution was adjusted to 1.2 at ambient temperature with concentrated sulfuric acid. An amorphous white precipitate formed rapidly and the supernatant HPBS concentration, as determined by HPLC, dropped to the range of 5-8 μM.

[4] = comparison value for benzenesulfinic acid; cited from earlier work

## O=S(O)c1ccccc1-c1ccccc1O [2-(2-hydroxyphenyl)benzenesulfinic acid]
[1]; ambient temperature, TMD, x-ray fluorescence detection
  solubility in TMD: below the limits of detection
[1]; ambient temperature, hexadecane, x-ray fluorescence detection
  solubility in hexadecane: below the limits of detection
[1]; ambient temperature, toluene, x-ray fluorescence detection
  solubility in toluene: below the limits of detection
[1]; gas-oil, 50° C.
  solubility in gas-oil: no detectable solubility
[1]; middle distillate, 50° C.
  solubility in middle distillate: no detectable solubility
[2]; 110 mM HPBS titrated with aqueous HCl
  pH at which precipitation of solid began: ~2
[3]; organic solvents, such as toluene
  solubility of precipitate in organic solvents, such as toluene: only sparingly soluble
[3]; water at neutral pH
  dissolution of precipitate in water: dissolved rapidly

## O=S1Oc2ccccc2-c2ccccc21 (centres unmarked) [DBTSi, dibenzothiophene sultine]
[1]
  solubility in gas-oil: ca. 1.4%
  solubility in hexadecane: 0.33 % by weight
  solubility in liquid hydrocarbons, in words: substantially more soluble in liquid hydrocarbons
  solubility in middle distillate: ca. 1%
  solubility in vacuum gas oil: 4.3%
  temperature dependence of solubility in the hydrocarbon: increased with increasing temperature

## O=S(O)c1ccccc1-c1ccccc1O [HPBS, 2-(2'-hydroxyphenyl)benzenesulfinate]
[2]; 110 mM HPBS at pH 13 titrated with aqueous HCl, read-out: pKa of phenolic group
  pKa: ~10.5
[3]; water, pH 1.2, ambient temperature, concentrated (>50 mM) HPBS, sulfuric acid, HPLC, read-out: supernatant HPBS concentration after precipitation
  solubility: 5 to 8 µM (≈ 1.17 to 1.87 µg/mL)

## O=S(O)c1ccccc1 [benzenesulfinic acid]
[4]
  pKa: 1.2
